According to ChEMBL document CHEMBL1201862, “PubChem BioAssay data set” (2004):
Active and inactive are the calls of the source.

Experiments:
Cytochrome P450 3A4 [1] = molecular target: T1, Cytochrome P450 3A4 (Homo sapiens, UniProt P08684); conditions: Potency
Cytochrome P450 2C9 = Cytochrome P450 2C9 (Homo sapiens, UniProt P11712)
Cytochrome P450 2C19 = Cytochrome P450 2C19 (Homo sapiens, UniProt P33261); experiment: Cytochrome panel assay with activity outcomes. Panel member name: p450-cyp2c19 Compounds with AC50 equal or less than 10 uM are considered active; format: functional; conditions: read-out: AC50
[2] = molecular target: T2, Zinc finger protein mex-5 (Caenorhabditis elegans, UniProt Q9XUB2); experiment: potency of MEX-5 RNA-binding blockers – biochemical, C. elegans, fluorescence polarization, dose response (AID 1960)
T2 sequence (Q9XUB2 whole entry): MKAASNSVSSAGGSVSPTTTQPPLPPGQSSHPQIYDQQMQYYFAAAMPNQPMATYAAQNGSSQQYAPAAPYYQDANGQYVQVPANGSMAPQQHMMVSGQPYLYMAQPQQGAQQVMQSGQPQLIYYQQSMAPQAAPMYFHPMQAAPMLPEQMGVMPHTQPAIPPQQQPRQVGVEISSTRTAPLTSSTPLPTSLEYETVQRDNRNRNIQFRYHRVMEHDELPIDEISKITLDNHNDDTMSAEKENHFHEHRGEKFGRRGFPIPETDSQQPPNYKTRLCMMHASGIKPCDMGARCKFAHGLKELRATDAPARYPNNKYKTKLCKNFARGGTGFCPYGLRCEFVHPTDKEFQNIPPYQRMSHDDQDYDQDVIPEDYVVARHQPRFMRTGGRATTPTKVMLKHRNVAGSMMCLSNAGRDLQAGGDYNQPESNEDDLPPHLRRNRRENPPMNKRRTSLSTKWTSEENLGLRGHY

[3] = molecular target: T3, RNA-binding protein pos-1 (Caenorhabditis elegans, UniProt G5EF15); experiment: disruptors of C. elegans POS-1 RNA interaction – biochemical, fluorescence polarization, dose response (AID 1964);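 further: purified POS-1 fused to maltose binding protein made in E. coli; potency of compounds blocking POS-1 binding to fluorescent RNA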
T3 sequence (G5EF15 whole entry): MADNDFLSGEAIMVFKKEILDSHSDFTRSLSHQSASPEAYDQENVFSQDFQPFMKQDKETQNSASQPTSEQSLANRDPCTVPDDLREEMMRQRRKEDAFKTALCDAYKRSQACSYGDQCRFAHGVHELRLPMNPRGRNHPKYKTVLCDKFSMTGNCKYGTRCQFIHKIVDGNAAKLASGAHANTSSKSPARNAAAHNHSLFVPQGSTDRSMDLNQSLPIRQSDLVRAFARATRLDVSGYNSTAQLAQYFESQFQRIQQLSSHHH

Cytochrome P450 3A4 [4] = molecular target: T1, Cytochrome P450 3A4
Cytochrome P450 2D6 = Cytochrome P450 2D6 (Homo sapiens, UniProt P10635);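 further: CYP2D6 member of a cytochrome P450 panel assay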
Aminopeptidase N = molecular target: T4, Aminopeptidase N (Plasmodium falciparum FcB1/Columbia, UniProt O96935); experiment: malaria alanyl aminopeptidase activity blockers – biochemical, fluorogenic H-Leu-NHMec substrate, 1536-well (AID 1445); parameters: species or system Plasmodium falciparum 3D7, 3D7
T4 sequence (O96935 whole entry): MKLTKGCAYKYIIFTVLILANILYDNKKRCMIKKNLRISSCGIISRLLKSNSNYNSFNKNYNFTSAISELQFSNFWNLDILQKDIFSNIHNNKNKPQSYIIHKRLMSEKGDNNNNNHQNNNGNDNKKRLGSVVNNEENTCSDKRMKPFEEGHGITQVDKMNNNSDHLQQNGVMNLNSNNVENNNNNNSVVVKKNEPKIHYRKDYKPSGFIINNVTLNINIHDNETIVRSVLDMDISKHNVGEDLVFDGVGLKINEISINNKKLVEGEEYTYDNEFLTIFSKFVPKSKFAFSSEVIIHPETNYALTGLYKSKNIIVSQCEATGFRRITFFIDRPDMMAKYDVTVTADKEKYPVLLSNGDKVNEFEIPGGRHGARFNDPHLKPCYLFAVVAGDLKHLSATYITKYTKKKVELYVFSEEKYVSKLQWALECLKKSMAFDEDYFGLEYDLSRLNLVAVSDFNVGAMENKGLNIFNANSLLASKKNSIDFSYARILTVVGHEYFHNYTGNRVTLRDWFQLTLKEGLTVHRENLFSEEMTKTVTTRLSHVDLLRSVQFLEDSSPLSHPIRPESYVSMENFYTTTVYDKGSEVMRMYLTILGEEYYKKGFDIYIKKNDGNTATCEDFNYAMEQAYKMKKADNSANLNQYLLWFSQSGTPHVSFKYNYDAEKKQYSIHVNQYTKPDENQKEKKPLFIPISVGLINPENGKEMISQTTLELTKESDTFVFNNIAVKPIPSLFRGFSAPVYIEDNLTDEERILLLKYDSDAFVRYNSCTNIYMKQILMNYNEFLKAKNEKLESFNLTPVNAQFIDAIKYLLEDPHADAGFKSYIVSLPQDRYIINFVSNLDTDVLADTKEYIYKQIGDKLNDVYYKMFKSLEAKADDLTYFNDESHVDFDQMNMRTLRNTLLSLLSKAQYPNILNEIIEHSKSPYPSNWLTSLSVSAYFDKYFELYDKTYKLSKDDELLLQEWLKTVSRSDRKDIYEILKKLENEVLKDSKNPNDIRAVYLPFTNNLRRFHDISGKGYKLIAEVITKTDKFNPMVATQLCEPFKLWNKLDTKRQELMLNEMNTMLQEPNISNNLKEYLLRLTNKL

[5] = viability of PTEN-deleted HCT116 cells – cell-based, HCT116 PTEN knockout, dose response (AID 1047); format: functional;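 further: HCT116 colon tumor cells with PTEN knocked out; cells exposed to compound for 60 hours before readout; potency for loss of cell viability measured by luminescence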
[6] = viability of HCT116 lacking mutant beta-catenin – cell-based, human colon tumor, dose response (AID 1045); format: functional;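 further: HCT116 colon tumor cells with beta catenin knocked out; cells exposed to compound for 60 hours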
Cytochrome P450 1A2 = molecular target: T5, Cytochrome P450 1A2 (Homo sapiens, UniProt P05177);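 further: PubChem cytochrome P450 panel assay, CYP1A2 panel member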
T5 sequence (P05177 whole entry): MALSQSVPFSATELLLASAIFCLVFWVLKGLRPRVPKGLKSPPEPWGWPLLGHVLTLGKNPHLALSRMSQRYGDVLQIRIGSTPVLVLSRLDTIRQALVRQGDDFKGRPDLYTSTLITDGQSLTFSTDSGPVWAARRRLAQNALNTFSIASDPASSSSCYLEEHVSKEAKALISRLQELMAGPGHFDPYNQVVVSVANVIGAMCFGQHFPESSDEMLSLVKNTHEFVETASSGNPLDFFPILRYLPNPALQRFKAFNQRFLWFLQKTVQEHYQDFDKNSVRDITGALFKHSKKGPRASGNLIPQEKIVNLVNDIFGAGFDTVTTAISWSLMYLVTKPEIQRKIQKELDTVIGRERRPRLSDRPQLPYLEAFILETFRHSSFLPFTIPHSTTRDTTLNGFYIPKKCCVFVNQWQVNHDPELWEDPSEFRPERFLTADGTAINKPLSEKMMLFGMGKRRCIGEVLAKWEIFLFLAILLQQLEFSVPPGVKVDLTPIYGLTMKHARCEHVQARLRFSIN

T1 sequence (P08684 whole entry): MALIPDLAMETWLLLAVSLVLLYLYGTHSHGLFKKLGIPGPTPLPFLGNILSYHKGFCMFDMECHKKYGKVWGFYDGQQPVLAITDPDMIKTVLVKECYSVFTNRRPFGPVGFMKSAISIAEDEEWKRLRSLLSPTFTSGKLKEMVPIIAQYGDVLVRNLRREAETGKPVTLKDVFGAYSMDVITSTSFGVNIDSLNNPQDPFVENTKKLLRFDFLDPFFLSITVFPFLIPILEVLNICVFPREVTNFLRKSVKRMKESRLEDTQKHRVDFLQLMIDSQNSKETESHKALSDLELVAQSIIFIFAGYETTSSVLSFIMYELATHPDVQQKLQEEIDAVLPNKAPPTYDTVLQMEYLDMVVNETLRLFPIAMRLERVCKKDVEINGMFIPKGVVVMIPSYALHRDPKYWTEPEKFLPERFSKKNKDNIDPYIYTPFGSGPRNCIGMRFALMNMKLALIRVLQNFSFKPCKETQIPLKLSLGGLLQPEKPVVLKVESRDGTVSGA
Cytochrome P450 2C9, sequence (P11712 whole entry): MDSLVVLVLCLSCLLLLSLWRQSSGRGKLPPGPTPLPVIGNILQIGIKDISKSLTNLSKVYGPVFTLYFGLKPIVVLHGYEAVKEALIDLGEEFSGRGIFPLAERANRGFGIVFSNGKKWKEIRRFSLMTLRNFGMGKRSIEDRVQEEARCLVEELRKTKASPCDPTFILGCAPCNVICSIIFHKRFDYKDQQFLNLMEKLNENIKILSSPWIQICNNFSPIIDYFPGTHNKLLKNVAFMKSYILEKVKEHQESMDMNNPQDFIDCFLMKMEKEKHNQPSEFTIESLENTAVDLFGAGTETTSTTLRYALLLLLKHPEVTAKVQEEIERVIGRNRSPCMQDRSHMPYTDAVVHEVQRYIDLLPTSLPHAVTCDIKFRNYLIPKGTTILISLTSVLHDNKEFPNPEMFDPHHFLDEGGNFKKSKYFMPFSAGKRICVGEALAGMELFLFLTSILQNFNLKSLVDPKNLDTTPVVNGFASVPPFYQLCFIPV
Cytochrome P450 2C19, sequence (P33261 whole entry): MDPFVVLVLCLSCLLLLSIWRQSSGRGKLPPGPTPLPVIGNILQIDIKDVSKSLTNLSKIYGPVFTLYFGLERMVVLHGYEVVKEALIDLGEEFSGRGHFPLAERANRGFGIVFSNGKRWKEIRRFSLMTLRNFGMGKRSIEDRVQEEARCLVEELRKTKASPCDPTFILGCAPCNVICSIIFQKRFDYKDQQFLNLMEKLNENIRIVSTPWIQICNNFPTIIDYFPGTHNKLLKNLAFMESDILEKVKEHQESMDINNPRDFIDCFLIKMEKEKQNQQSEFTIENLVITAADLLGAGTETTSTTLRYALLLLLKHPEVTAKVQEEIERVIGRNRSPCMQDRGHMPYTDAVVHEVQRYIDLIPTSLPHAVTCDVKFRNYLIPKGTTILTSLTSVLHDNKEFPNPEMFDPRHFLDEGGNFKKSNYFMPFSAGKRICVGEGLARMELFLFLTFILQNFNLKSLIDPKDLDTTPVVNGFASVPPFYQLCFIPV
Cytochrome P450 2D6, sequence (P10635 whole entry): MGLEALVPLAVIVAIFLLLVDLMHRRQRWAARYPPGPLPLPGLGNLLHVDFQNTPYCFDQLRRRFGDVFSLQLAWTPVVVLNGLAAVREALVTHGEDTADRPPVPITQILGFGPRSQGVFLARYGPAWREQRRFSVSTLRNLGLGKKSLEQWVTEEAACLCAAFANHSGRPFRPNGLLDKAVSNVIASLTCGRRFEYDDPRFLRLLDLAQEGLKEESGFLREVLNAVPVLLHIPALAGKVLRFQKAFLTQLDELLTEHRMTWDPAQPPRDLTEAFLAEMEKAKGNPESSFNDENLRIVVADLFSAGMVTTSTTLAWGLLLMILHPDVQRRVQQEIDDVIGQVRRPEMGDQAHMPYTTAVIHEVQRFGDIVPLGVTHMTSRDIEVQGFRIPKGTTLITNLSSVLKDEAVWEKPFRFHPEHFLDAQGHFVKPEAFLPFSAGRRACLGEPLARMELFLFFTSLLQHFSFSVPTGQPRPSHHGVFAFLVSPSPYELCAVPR

CCN1C(C)=C(C(=O)OC)C(c2ccccc2)N2C(=O)[C@](O)(C(=O)OC)C(c3ccccc3)C(C(C)=O)=C12 (some centres undefined)
AC50 (Cytochrome P450 3A4 [1]): 3.98 µM (inconclusive)

CC(C)c1c(O)ccc2c1CCC1[C@@](C)(C=O)CCC[C@@]21C (some centres undefined)
AC50 (Cytochrome P450 3A4 [1]): 31.6 µM (inconclusive)

COc1cccc(Nc2ncc3nc(-c4ccc(F)cc4)c(=O)n(CCC#N)c3n2)c1
AC50 (Cytochrome P450 2C9): inconclusive

CN(C)S(=O)(=O)c1ccc(NC(=O)c2cc(F)c(F)cc2Cl)cc1
AC50 (Cytochrome P450 2C9): inconclusive
AC50 (Cytochrome P450 2C19): 17.8 µM (inconclusive)

CN1C(=O)C(=Cc2cn(CC(=O)N3CCCCC3)c3ccccc23)C(=O)N(C)C1=O
EC50 [2]: > 300 µM (not active)
EC50 [3]: > 300 µM (not active)

O=C(O)Cn1cc(/C=C2\C(=O)NC(=O)N(c3ccc(F)cc3)C2=O)c2ccccc21
EC50 [2]: 8.21 µM (active)
EC50 [3]: 9.27 µM (active)

CC(=O)c1c(O)c(C)c(O)c2c1OC1=CC(=O)C(C(C)=O)C(=O)C12C (centres undefined)
AC50 (Cytochrome P450 3A4 [1]): 0.159 µM (inconclusive)

COc1ccccc1CN1C(=O)c2ccncc2C1=O
AC50 (Cytochrome P450 3A4 [4]): 11.2 µM (inconclusive)
AC50 (Cytochrome P450 2C9): inconclusive

Cc1ccc(C2c3sc(=O)[nH]c3SC3C(=O)NC(=O)C32)cc1 (centres undefined)
EC50 [2]: 6.53 µM (inconclusive)
EC50 [3]: > 300 µM (inconclusive)

Cc1ccc(OCCCOc2cccc3cccnc23)cc1C
AC50 (Cytochrome P450 2D6): 17.8 µM (inconclusive)
AC50 (Cytochrome P450 3A4 [4]): 28.2 µM (inconclusive)
AC50 (Cytochrome P450 2C9): inconclusive

CCOP(=O)(OCC)c1nc(/C=C/c2ccccc2)oc1NCc1ccc(OC)cc1
IC50 (Aminopeptidase N): 128 µM (active)

O=C(CN1CCC(NC(=O)c2cccc(F)c2)CC1)NCc1cccs1
IC50 (Aminopeptidase N): 22.6 µM (active)

C=CCN1C(=O)NC(=O)/C(=C/c2ccc(OCC(=O)Nc3ccc(C)cc3)cc2)C1=O
EC50 [2]: > 300 µM (not active)
EC50 [3]: > 300 µM (not active)

N#Cc1ccc(C23CC4(C2)[C@H](CN(CC2CCCCC2)[C@@H]4c2ccccc2)C3c2ccc(Cl)nc2)cc1 (some centres undefined)
AC50 (Cytochrome P450 3A4 [1]): 15.8 µM (inconclusive)

C=C(C(=O)c1ccccc1)C(C)CC(=O)c1ccccc1 (centres undefined)
EC50 [5]: 5.17 µM (active)
EC50 [6]: 4.74 µM (active)

O=C(C[S+]([O-])c1cccc(C(F)(F)F)c1)Nc1ccccc1Cl (centres undefined)
AC50 (Cytochrome P450 2C9): inconclusive
AC50 (Cytochrome P450 1A2): 15.8 µM (inconclusive)

CCn1c(SCC(=O)Nc2cc(C)on2)nnc1-c1ccc(OC)cc1
EC50 [2]: > 300 µM (not active)
EC50 [3]: > 300 µM (not active)

COC(=O)CCCCCN1C(=O)NC(CC2CC2)C(C(=O)OCc2ccccc2)=C1C (centres undefined)
AC50 (Cytochrome P450 3A4 [1]): 20 µM (inconclusive)

Cc1ccccc1NS(=O)(=O)c1cc(C(=O)N2CCCC2)ccc1C
EC50 [2]: > 300 µM (not active)
EC50 [3]: > 300 µM (not active)

Cc1cccc(NS(=O)(=O)c2ccc3c(c2)Cc2cc(S(=O)(=O)Nc4cccc(C)c4C)ccc2-3)c1C
EC50 [5]: 11 µM (active)
EC50 [6]: 10.2 µM (active)

COCc1cc(O)n2nc(-c3cccs3)cc2n1
EC50 [2]: > 300 µM (not active)
EC50 [3]: > 300 µM (not active)

COc1ccc(-c2nnc(SCc3cccc(C)c3)n2N)cc1
AC50 (Cytochrome P450 2C9): inconclusive

O=C(N/N=C\c1ccc2c(c1)CCC2)c1ccccc1O
AC50 (Cytochrome P450 2D6): 5.01 µM (inconclusive)
AC50 (Cytochrome P450 2C9): inconclusive
AC50 (Cytochrome P450 2C19): 0.251 µM (inconclusive)

CCOCCCNC(=O)C1CCN(S(=O)(=O)N2CC(C)CC(C)C2)CC1 (centres undefined)
AC50 (Cytochrome P450 3A4 [4]): 15.8 µM (inconclusive)
AC50 (Cytochrome P450 2C9): inconclusive

COc1ccc2c(c1[N+](=O)[O-])CCC/C2=N/OC(=O)c1ccccc1SC
AC50 (Cytochrome P450 3A4 [4]): 15.8 µM (inconclusive)
AC50 (Cytochrome P450 2C9): inconclusive

O=C1c2c(O)cc(O)cc2OC(c2ccc(O)c(O)c2)C1O (centres undefined) [TAXIFOLIN]
AC50 (Cytochrome P450 3A4 [1]): 25.1 µM (inconclusive)
